# pIC50, pKi: −log10 of the molar value. Calls of active or inactive are those of the source. The rule behind the calls is not given here.
# Legend:
# [1] = system: Mycobacterium tuberculosis; assay: Antitubercular activity against Mycobacterium tuberculosis H37Rv assessed as growth inhibition after 30 days by agar microdilution method; format: functional
# [2] = target: DNA ligase 1 (Homo sapiens, UniProt P18858); assay: Inhibition of nick joining activity of human DNA ligase 1 using [gamma32P]ATP-labeled nicked 40 bp DNA as substrate
# DNA ligase 1, sequence (P18858 whole entry): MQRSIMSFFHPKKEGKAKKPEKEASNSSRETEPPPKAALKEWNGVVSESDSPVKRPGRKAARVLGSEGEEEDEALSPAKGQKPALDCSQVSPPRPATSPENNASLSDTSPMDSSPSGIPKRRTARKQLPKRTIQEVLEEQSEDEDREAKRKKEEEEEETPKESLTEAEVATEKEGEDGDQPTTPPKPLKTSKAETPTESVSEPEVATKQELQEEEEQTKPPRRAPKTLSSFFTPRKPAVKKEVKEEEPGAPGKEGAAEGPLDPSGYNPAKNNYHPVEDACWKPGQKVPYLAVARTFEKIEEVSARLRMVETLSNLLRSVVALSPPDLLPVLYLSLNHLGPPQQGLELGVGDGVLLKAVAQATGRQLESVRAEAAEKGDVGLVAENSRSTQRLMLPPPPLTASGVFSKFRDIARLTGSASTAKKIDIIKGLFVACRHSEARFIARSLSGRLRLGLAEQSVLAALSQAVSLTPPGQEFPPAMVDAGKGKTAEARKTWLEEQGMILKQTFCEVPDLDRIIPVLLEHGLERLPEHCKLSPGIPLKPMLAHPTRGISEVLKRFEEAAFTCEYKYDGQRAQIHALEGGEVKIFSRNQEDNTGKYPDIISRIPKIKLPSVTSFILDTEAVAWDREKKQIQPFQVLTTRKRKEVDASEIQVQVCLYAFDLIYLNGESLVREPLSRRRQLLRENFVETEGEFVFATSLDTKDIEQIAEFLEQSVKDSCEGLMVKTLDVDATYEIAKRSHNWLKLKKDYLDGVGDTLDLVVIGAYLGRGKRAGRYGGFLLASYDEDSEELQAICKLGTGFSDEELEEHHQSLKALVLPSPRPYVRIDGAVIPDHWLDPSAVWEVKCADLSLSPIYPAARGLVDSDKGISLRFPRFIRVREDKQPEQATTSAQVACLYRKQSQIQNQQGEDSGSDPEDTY
# [3] = target: T1, DNA ligase (Enterobacteria phage T4, UniProt P00970); assay: Inhibition of nick joining activity of ATP-dependent bacteriophage T4 DNA ligase using [gamma32P]ATP-labeled nicked 40 bp DNA as substrate; parameters: species or system Tequatrovirus T4
# T1 sequence (P00970 whole entry): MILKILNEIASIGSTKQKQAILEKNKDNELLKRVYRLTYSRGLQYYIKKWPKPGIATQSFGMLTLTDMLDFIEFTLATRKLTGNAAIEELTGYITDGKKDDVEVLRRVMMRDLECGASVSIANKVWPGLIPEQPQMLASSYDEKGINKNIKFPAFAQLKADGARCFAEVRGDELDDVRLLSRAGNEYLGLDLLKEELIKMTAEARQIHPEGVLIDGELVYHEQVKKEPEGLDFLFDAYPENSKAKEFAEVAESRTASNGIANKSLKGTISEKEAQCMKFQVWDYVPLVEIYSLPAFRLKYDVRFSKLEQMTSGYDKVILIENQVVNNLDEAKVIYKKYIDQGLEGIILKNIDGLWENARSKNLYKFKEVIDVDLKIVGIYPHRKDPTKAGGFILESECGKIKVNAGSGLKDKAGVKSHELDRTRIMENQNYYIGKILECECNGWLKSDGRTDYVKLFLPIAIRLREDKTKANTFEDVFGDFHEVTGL
# [4] = Inhibition of nick joining activity of Mycobacterium tuberculosis full length NAD+-dependent DNA ligase using [gamma32P]ATP-labeled nicked 40 bp DNA as substrate
# [5] = system: Escherichia coli; assay: In vivo antibacterial activity against Escherichia coli GR501 harboring lig251 temperature-sensitive mutant gene transformed with control plasmid pTrc99A assessed as growth inhibition after 20 hrs by microdilution assay; format: functional; conditions: GR501, 20 h
# [6] = system: Salmonella typhimurium; assay: In vivo antibacterial activity against wild type Salmonella typhimurium LT2 assessed as growth inhibition after 20 hrs by microdilution assay; format: functional, Salmonella enterica subsp. enterica serovar Typhimurium; conditions: Salmonella enterica, LT2, 20 h
# [7] = system: Salmonella typhimurium; assay: In vivo antibacterial activity against DNA ligase deficient Salmonella typhimurium variant TT15151 expressing […] T4 DNA ligase gene assessed as growth inhibition after 20 hrs by microdilution assay; format: functional, Salmonella enterica subsp. enterica serovar Typhimurium; conditions: Salmonella enterica, TT15151, 20 h
# [8] = Ratio of IC50 for human DNA ligase 1 to IC50 for Mycobacterium tuberculosis full length NAD+-dependent DNA ligase
# [9] = Ratio of IC50 for ATP-dependent bacteriophage T4 DNA ligase to IC50 for Mycobacterium tuberculosis full length NAD+-dependent DNA ligase
# [10] = Competitive inhibition of nick joining activity of Mycobacterium tuberculosis full length NAD+-dependent DNA ligase using [gamma32P]ATP-labeled nicked 40 bp DNA as substrate by double reciprocal plot assay in presence of rising concentrations of NAD+
# [11] = system: Calf thymus DNA; assay: Binding affinity to calf thymus DNA up to 250 uM by ethidium bromide displacement assay; format: nucleic-acid assay; conditions: Bos taurus
# [12] = Binding affinity to plasmid DNA (unknown origin) by gel electrophoresis mobility shift assay
# [13] = system: Escherichia coli; assay: In vivo antibacterial activity against Escherichia coli GR501 harboring temperature-sensitive lig251 mutant gene transformed with plasmid encoding T4 DNA ligase assessed as growth inhibition after 20 hrs by microdilution assay; format: functional; conditions: GR501, 20 h
smiles,measurement,setting,value
COc1ccc(C2CC23CCC2(CC2c2ccc(OC)cc2)C3=O)cc1 (centres undefined),MIC90,[1],> 30 µM
COc1ccc(C2CC23CCCC2(CC2c2ccc(OC)c(OC)c2)C3=O)cc1OC (centres undefined),MIC90,[1],29.6 µM
COc1cc(C2CC23CCCC2(CC2c2cc(OC)c(OC)c(OC)c2)C3=O)cc(OC)c1OC (centres undefined),MIC90,[1],25.9 µM
COc1cc(C2CC23CCCCC2(CC2c2cc(OC)c(OC)c(OC)c2)C3=O)cc(OC)c1OC (centres undefined),MIC90,[1],25.2 µM
COc1ccc(C2CC23CCCCC2(CC2c2ccc(OC)c(OC)c2)C3=O)cc1OC (centres undefined),MIC90,[1],28.6 µM
O=C1C2(CCC13CC3c1ccc(Br)cc1)CC2c1ccc(Br)cc1 (centres undefined),MIC90,[1],28 µM
O=C1C2(CCCC13CC3c1ccccc1)CC2c1ccccc1 (centres undefined),pIC50,[2],3.89
same,MIC90,[1],> 30 µM
same,pIC50,[3],3.68
same,pIC50,[4],3.74
CC[C@@H](CO)NCCN[C@@H](CC)CO [ETHAMBUTOL],MIC90,[1],15.9 µM
COc1ccc(C2CC23CCC2(CC2c2ccc(OC)c(OC)c2)C3=O)cc1OC (centres undefined),MIC90,[1],> 30 µM
O=C1C2(CCCC13CC3c1ccc(Br)cc1)CC2c1ccc(Br)cc1 (centres undefined),MIC,[5],8.6 µM
same,MIC,[6],43.4 µM
same,MIC,[7],76 µM
same,Ratio IC50,[8],8
same,pIC50,[2],4.23
same,Ratio IC50,[9],8
same,pKi,[10],5.23
same,MIC90,[1],13.5 µM
same,Activity,[11],inactive
same,pIC50,[3],4.15
same,Activity,[12],inactive
same,pIC50,[4],5.14
same,MIC,[13],65.2 µM
O=C1C2(CCCCC13CC3c1ccc(Cl)cc1)CC2c1ccc(Cl)cc1 (centres undefined),MIC90,[1],> 30 µM
O=C1C2(CCCC13CC3c1ccc(OCc3ccccc3)cc1)CC2c1ccc(OCc2ccccc2)cc1 (centres undefined),MIC90,[1],24.3 µM
COc1ccc(C2CC23CCCCC2(CC2c2ccc(OC)cc2)C3=O)cc1 (centres undefined),MIC90,[1],> 30 µM
O=C1C2(CCCC13CC3c1ccc(Cl)cc1)CC2c1ccc(Cl)cc1 (centres undefined),pIC50,[2],4.73
same,MIC90,[1],16.8 µM
same,pIC50,[3],4.69
same,pIC50,[4],4.92
O=C1C2(CCCC13CC3c1ccc(F)cc1)CC2c1ccc(F)cc1 (centres undefined),MIC,[5],5.9 µM
same,MIC,[6],29.5 µM
same,MIC,[7],148 µM
same,Ratio IC50,[8],5
same,pIC50,[2],4.34
same,Ratio IC50,[9],4
same,MIC90,[1],> 30 µM
same,Activity,[11],inactive
same,pIC50,[3],4.48
same,Activity,[12],inactive
same,pIC50,[4],5.07
same,MIC,[13],178 µM
O=C(C1CC1c1ccc(OCc2ccccc2)cc1)C1CC1c1ccc(OCc2ccccc2)cc1 (centres undefined),MIC90,[1],26.3 µM
O=C1C2(CCC13CC3c1ccc(OCc3ccccc3)cc1)CC2c1ccc(OCc2ccccc2)cc1 (centres undefined),MIC90,[1],25 µM
O=C1C2(CCC13CC3c1ccc(F)cc1)CC2c1ccc(F)cc1 (centres undefined),MIC90,[1],> 30 µM
NNC(=O)c1ccncc1 [ISONIAZID],MIC90,[1],4.7 µM
COc1ccc(C2CC23CCCC2(CC2c2ccc(OC)cc2)C3=O)cc1 (centres undefined),MIC90,[1],> 30 µM

# Source: ChEMBL document CHEMBL3217431, “Synthesis, in silico screening and bioevaluation of dispiro-cycloalkanones as antitubercular and mycobacterial NAD+-dependent DNA ligase inhibitors” (Medchemcomm, 2011)
